Test results published in patent publication US12606548B2, “Fungicidal oxadiazoles” (FMC CORPORATION, priority 2019, dated 2026).
Marks after values point to notes of the source that are not given here.

What was measured:
Format in all cases: in vivo
Phakopsora pachyrhizi = assay: Test A: test suspension sprayed on soybean seedlings, inoculated next day with Phakopsora pachyrhizi (Asian soybean rust), visual disease rating; conditions: for Test A rating (% disease control): relative to the controls
Method in brief: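 Compounds first dissolved in acetone (3% of final volume), then suspended in acetone/water 50/50 with 250 ppm PEG400 and sprayed to run-off on soybean seedlings at the stated ppm rate. Inoculated next day with P. pachyrhizi spores; 24 h saturated atmosphere at 22 °C, then 8 days in growth chamber at 22 °C before visual disease rating.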

Zymoseptoria tritici = assay: Test B: test suspension sprayed on wheat seedlings, inoculated next day with Zymoseptoria tritici (wheat leaf blotch), visual disease rating; conditions: for Test B rating (% disease control): relative to the controls
Excerpt: General protocol for preparing test suspensions for Tests A-C: the test compounds were first dissolved in acetone in an amount equal to 3% of the final volume and then suspended at the desired concentration (in ppm) in acetone and purified water (50/50 mix by volume) containing 250 ppm of the surfactant PEG400 (polyhydric alcohol esters). The resulting test suspensions were then used in Tests A-C.
The test suspension was sprayed to the point of run-off on wheat seedlings. The following day the seedlings were inoculated with a spore suspension of Zymoseptoria tritici (the causal agent of wheat leaf blotch) and incubated in a saturated atmosphere at 24° C., for 48 h, and then moved to a growth chamber at 20° C., for 17 days, after which time visual disease ratings were made.
Results for Tests A-C are given in Table A. In the Table, a rating of 100 indicates 100% disease control and a rating of 0 indicates no disease control (relative to the controls). A dash (-) indicates the compound was not tested. The test suspensions were sprayed at the concentration listed in the column “Rate in ppm”, unless otherwise indicated. An asterisk “*” next to the rating indicates a 250 ppm test suspension was used, a double asterisk “**” next to the rating indicates a 100 ppm test suspension was used, and a triple asterisk “***” next to the rating indicates a 50 ppm test suspension was used.

[1] = tested on: Puccinia recondita f. sp. tritici; assay: Test C: test suspension sprayed on wheat seedlings, inoculated next day with Puccinia recondita f. sp. tritici (wheat leaf rust), visual disease rating; conditions: for Test C rating (% disease control): relative to the controls
Method in brief: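 Compounds dissolved in acetone (3% of final volume), suspended in acetone/water 50/50 with 250 ppm PEG400 and sprayed to run-off on wheat seedlings at the listed ppm rate. Inoculated next day with P. recondita spores; 24 h saturated atmosphere at 20° C, then 6 days growth chamber at 20° C; visual disease rating.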

Compound | Test A rating (% disease control) (Phakopsora pachyrhizi; Rate 10 ppm test suspension) [%] | Test B rating (% disease control) (Zymoseptoria tritici; 250 ppm test suspension) | Test C rating (% disease control) ([1]; Rate 10 ppm test suspension) [%] | other results
O=C(CCl)COC(=O)c1cnn(Cc2ccc(-c3noc(C(F)(F)F)n3)cc2)c1 [compound 495] | 100 | 43* % | 0 | 
O=C(NCC(F)(F)F)c1coc(COc2ccc(-c3noc(C(F)(F)F)n3)cc2)n1 [compound 465] | 100 | 0* % | 80 | 
O=C(NCCC(F)(F)F)c1coc(Cc2ccc(-c3noc(C(F)(F)F)n3)cc2)n1 [compound 330] |  |  |  | Test A disease control rating (Phakopsora pachyrhizi; 10 ppm test suspension): 100%; Test B disease control rating (Zymoseptoria tritici; 250 ppm test suspension): 96* %; Test C disease control rating ([1]; 10 ppm test suspension): 100%
O=C(c1coc(Cc2ccc(-c3noc(C(F)(F)F)n3)cc2)n1)N1CCC(F)(F)C1 [compound 402] | 100 | 96* % | 90 | 
CCOC(=O)c1cnn(CCN2CCC(c3noc(C(F)(F)F)n3)CC2)c1 [compound 459] |  | 0* % |  | Test A rating (% disease control) (Phakopsora pachyrhizi; Rate 50 ppm test suspension): 0%; Test C rating (% disease control) ([1]; Rate 50 ppm test suspension): 0%
CN(C)C(=O)C1=NOC(COc2cccc(-c3noc(C(F)(F)F)n3)c2)C1 (stereo not drawn) [compound 502] |  | 62% |  | Test A rating (% disease control) (Phakopsora pachyrhizi; Rate 250 ppm test suspension): 100%; Test C rating (% disease control) ([1]; Rate 250 ppm test suspension): 100%
CON=C(CCl)COC(=O)c1cnn(Cc2ccc(-c3noc(C(F)(F)F)n3)cc2)c1 [compound 494] | 100 | 47* % | 0 | 
O=C(NCCn1cccn1)c1coc(COc2ccc(-c3noc(C(F)(F)F)n3)cc2)n1 [compound 466] | 100 | 3* % | 55 | 
1-[[4-[5-(trifluoromethyl)-1,2,4-oxadiazol-3-yl]phenyl]methyl]-2(1H)-quinoxalinone [Compound 158] |  |  |  | Test A disease control rating (Phakopsora pachyrhizi; 250 ppm test suspension): 100%; Test B disease control rating (Zymoseptoria tritici; 250 ppm test suspension): 0%; Test C disease control rating ([1]; 250 ppm test suspension): 100%
O=C(NCC(F)(F)F)c1coc(Cc2ccc(-c3noc(C(F)(F)F)n3)cc2)n1 [compound 316] |  |  |  | Test A disease control rating (Phakopsora pachyrhizi; 10 ppm test suspension): 100%; Test B disease control rating (Zymoseptoria tritici; 250 ppm test suspension): 5* %; Test C disease control rating ([1]; 10 ppm test suspension): 100%
N#CCNC(=O)c1csc(Cc2ccc(-c3noc(C(F)(F)F)n3)cc2)n1 [compound 393] | 100 | 94* % | 100 | 
O=C(c1ccc(Cc2ccc(-c3noc(C(F)(F)F)n3)cc2)o1)C(F)(F)F [compound 450] | 94 | 41* % | 0 | 
α-(phenylamino)-4-[5-(trifluoromethyl)-1,2,4-oxadiazol-3-yl]benzeneacetonitrile [Compound 13] |  |  |  | Test A disease control rating (Phakopsora pachyrhizi; 250 ppm test suspension): 100%; Test B disease control rating (Zymoseptoria tritici; 250 ppm test suspension): 86%; Test C disease control rating ([1]; 250 ppm test suspension): 100%
N#CCOC(=O)c1cnn(Cc2ccc(-c3noc(C(F)(F)F)n3)cc2)c1 [compound 57] |  |  |  | Test A disease control rating (Phakopsora pachyrhizi; 10 ppm test suspension): 100%; Test B disease control rating (Zymoseptoria tritici; 100 ppm test suspension (double asterisk **)): 99** %; Test C disease control rating ([1]; 10 ppm test suspension): 100%
2-[[4-[5-(trifluoromethyl)-1,2,4-oxadiazol-3-yl]phenyl]methyl]-1H-isoindole-1,3(2H)-dione [Compound 90] |  |  |  | Test A disease control rating (Phakopsora pachyrhizi; 260 ppm test suspension): 100%; Test B disease control rating (Zymoseptoria tritici; 260 ppm test suspension): 100%; Test C disease control rating ([1]; 260 ppm test suspension): 100%
N#CCNC(=O)c1csc(COc2ccc(-c3noc(C(F)(F)F)n3)cc2)n1 [compound 473] | 94 | 28* % | 89 | 

Compound | Test A rating (% disease control) (Phakopsora pachyrhizi; Rate 10 ppm test suspension) [%] | Test B rating (% disease control) (Zymoseptoria tritici; 250 ppm test suspension) | Test C rating (% disease control) ([1]; Rate 10 ppm test suspension) [%] | other results
4,5-dihydro-2-[[4-[5-(trifluoromethyl)-1,2,4-oxadiazol-3-yl]phenyl]methyl]-4-oxazolecarboxamide [Compound 75] |  |  |  | Test A disease control rating (Phakopsora pachyrhizi; 250 ppm test suspension): 100%; Test B disease control rating (Zymoseptoria tritici; 250 ppm test suspension): 98%; Test C disease control rating ([1]; 250 ppm test suspension): 100%
COC(=O)c1csc(Cc2ccc(-c3noc(C(F)(F)F)n3)cc2)c1 [Compound 455] | 100 | 66* % | 0 | 
O=C(NCC(F)(F)F)c1csc(COc2ccc(-c3noc(C(F)(F)F)n3)cc2)n1 [compound 470] | 100 | 0* % | 94 | 
O=C(NC1CCC(F)(F)CC1)c1coc(Cc2ccc(-c3noc(C(F)(F)F)n3)cc2)n1 [compound 395] | 95 | 0* % | 97 | 
O=C(NCCCC(F)(F)F)c1coc(Cc2ccc(-c3noc(C(F)(F)F)n3)cc2)n1 [compound 398] | 100 | 80* % | 97 | 
COCCNC(=O)c1coc(COc2ccc(-c3noc(C(F)(F)F)n3)cc2)n1 [compound 464] | 79 | 94* % | 23 | 
CN(C)C(=O)C1=NOC(CN2CCC(c3noc(C(F)(F)F)n3)CC2)C1 (stereo not drawn) [compound 426] |  | 9* % |  | Test A rating (% disease control) (Phakopsora pachyrhizi; Rate 250 ppm test suspension): 0%; Test C rating (% disease control) ([1]; Rate 250 ppm test suspension): 0%
CCOC(=O)c1cnn(Cc2ccc(-c3noc(C(F)(F)F)n3)cc2)c1 [compound 276] |  |  |  | Test A disease control rating (Phakopsora pachyrhizi; 50 ppm test suspension): 100%; Test B disease control rating (Zymoseptoria tritici; 250 ppm test suspension): 35* %; Test C disease control rating ([1]; 50 ppm test suspension): 80%
N#CCNC(=O)c1coc(COc2ccc(-c3noc(C(F)(F)F)n3)cc2)n1 [compound 468] | 84 | 22* % | 0 | 
ethyl 1-[[4-[5-(trifluoromethyl)-1,2,4-oxadiazol-3-yl]phenyl]methyl]-1H-pyrazole-4-carboxylate [Compound 83] |  |  |  | Test A disease control rating (Phakopsora pachyrhizi; 270 ppm test suspension): 100%; Test B disease control rating (Zymoseptoria tritici; 270 ppm test suspension): 5%; Test C disease control rating ([1]; 270 ppm test suspension): 100%
OC(c1ccc(F)cc1)c1ccc(-c2noc(C(F)(F)F)n2)cc1 (racemic) [compound 500] |  | 5* % |  | Test A rating (% disease control) (Phakopsora pachyrhizi; Rate 250 ppm test suspension): 100%; Test C rating (% disease control) ([1]; Rate 250 ppm test suspension): 100%
COCCNC(=O)c1csc(Cc2ccc(-c3noc(C(F)(F)F)n3)cc2)n1 [compound 394] | 100 | 99* % | 100 | 
CC1(C)OCC(COC(=O)c2cnn(Cc3ccc(-c4noc(C(F)(F)F)n4)cc3)c2)O1 (stereo not drawn) [compound 496] | 100 | 48* % | 0 | 
O=C(NCC(F)(F)F)c1csc(Cc2ccc(-c3noc(C(F)(F)F)n3)cc2)n1 [compound 463] | 100 | 65* % | 100 | 
O=C(NCCC(F)(F)F)c1coc(COc2ccc(-c3noc(C(F)(F)F)n3)cc2)n1 [compound 467] | 97 | 6* % | 68 | 
COCC(COC)NC(=O)c1csc(Cc2ccc(-c3noc(C(F)(F)F)n3)cc2)n1 [compound 489] | 100 | 92* % | 99 | 
